Assay results from patent publication US9833455B2, “Preparation and methods of use for ortho-aryl 5-membered heteroaryl-carboxamide containing multi-targeted kinase inhibitors” (Spacefill Enterprises LLC, priority 2011, dated 2017).
Where two headings read alike, the source gives them in different places.

Experiments:
EGFR = molecular target: T1, EGFR (Homo sapiens, UniProt P00533); conditions: 1 μM, duplicate, without preincubation; cited from earlier work
T1 construct: literature Ambit Biosciences

PI3K-δ = molecular target: T2, PI3K-δ (Homo sapiens, UniProt O00329); experiment: Reaction Biology P33 radiolabeled kinase assay, IC50 and time dependence; format: biochemical; conditions: for IC50: ATP 10 uM, read-out: Compound IC50* PI3K-δ
T2 construct: purchased Reaction Biology Inc (contract assay)
Procedure: (§1) “Inhibiting kinase activity” means to decrease the production of an phosphor-peptide by a particular kinase that can be separated by analytical techniques. For example, a comprehensive platform of kinase, protease, phosphatase and epigenetic assays that utilizes cutting-edge microfluidics and informatics tools to provide accurate and rapid results. Profiling data in this application were determined using these techniques at Nanosyn Inc. IC50 data were provided by Reaction Biology Inc using a P33 radiolabeled kinase assay.
(§2) The observation of potency and isoform selectivity with time-dependency for PI3K-γ appears to be unprecedented in the literature. In addition, these activities combined with inhibition of p38-α, Raf-1, DDR and CSF-1R, would be complimentary and potentially synergistic activities for both the treatment of certain inflammation based conditions and cancers.

P38b/MAPK11 = molecular target: T3, P38b/MAPK11 (Homo sapiens, UniProt Q15759); experiment: as above; format: biochemical; conditions: for IC50: ATP 10 uM, read-out: Compound IC50* P38b/MAPK11
T3 construct: purchased Reaction Biology Inc (contract assay)
Procedure: as §1, §2

ROS/ROS1 = molecular target: T4, ROS/ROS1 (Homo sapiens, UniProt P08922); experiment: as above; format: biochemical; conditions: for IC50: ATP 10 uM, read-out: Compound IC50* ROS/ROS1
T4 construct: purchased Reaction Biology Inc (contract assay)
Procedure: as §1, §2

Aurora A = molecular target: T5, Aurora A (Homo sapiens, UniProt O14965); experiment: as above; format: biochemical; conditions: for IC50: ATP 10 uM, read-out: Compound IC50* Aurora A
T5 construct: purchased Reaction Biology Inc (contract assay)
T5 sequence (O14965 1-403): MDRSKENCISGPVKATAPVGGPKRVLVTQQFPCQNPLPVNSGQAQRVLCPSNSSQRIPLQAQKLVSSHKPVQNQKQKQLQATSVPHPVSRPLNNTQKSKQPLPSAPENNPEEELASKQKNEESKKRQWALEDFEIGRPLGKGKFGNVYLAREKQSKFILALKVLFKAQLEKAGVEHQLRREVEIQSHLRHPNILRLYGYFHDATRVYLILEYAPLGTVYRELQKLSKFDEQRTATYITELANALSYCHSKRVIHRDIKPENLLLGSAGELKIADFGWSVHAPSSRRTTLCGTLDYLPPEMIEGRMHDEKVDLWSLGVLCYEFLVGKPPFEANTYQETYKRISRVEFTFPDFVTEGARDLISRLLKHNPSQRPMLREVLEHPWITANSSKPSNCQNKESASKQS
Procedure: as §1, §2

PI3K-β = molecular target: T6, PI3K-β (Homo sapiens, UniProt P42338); experiment: as above; format: biochemical; conditions: for IC50: ATP 10 uM, read-out: Compound IC50* PI3K-β
T6 construct: purchased Reaction Biology Inc (contract assay)
Procedure: as §1, §2

FMS = FMS (Homo sapiens, UniProt P07333); experiment: as above; format: biochemical; conditions: for IC50: ATP 10 uM, read-out: Compound IC50* FMS
Procedure: as §1, §2

PI3K-α = PI3K-α (Homo sapiens, UniProt P42336); experiment: as above; format: biochemical; conditions: for IC50: ATP 10 uM, read-out: Compound IC50* PI3K-α
Procedure: as §1, §2

BMPR2 = molecular target: T7, BMPR2 (Homo sapiens, UniProt Q13873); conditions: 1 μM, duplicate, without preincubation; cited from earlier work
T7 construct: literature Ambit Biosciences

T3 sequence (Q15759 whole entry): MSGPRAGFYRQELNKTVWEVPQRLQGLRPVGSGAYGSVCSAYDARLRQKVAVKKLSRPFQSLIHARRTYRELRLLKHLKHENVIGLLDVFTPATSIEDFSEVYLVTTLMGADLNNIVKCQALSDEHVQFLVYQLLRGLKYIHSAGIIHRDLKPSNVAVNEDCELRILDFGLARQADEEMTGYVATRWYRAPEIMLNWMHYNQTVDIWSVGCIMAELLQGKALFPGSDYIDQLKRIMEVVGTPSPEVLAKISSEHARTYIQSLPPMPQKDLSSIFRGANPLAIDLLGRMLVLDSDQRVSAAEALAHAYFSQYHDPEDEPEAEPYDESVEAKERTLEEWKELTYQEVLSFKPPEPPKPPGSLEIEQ
T6 sequence (P42338 whole entry): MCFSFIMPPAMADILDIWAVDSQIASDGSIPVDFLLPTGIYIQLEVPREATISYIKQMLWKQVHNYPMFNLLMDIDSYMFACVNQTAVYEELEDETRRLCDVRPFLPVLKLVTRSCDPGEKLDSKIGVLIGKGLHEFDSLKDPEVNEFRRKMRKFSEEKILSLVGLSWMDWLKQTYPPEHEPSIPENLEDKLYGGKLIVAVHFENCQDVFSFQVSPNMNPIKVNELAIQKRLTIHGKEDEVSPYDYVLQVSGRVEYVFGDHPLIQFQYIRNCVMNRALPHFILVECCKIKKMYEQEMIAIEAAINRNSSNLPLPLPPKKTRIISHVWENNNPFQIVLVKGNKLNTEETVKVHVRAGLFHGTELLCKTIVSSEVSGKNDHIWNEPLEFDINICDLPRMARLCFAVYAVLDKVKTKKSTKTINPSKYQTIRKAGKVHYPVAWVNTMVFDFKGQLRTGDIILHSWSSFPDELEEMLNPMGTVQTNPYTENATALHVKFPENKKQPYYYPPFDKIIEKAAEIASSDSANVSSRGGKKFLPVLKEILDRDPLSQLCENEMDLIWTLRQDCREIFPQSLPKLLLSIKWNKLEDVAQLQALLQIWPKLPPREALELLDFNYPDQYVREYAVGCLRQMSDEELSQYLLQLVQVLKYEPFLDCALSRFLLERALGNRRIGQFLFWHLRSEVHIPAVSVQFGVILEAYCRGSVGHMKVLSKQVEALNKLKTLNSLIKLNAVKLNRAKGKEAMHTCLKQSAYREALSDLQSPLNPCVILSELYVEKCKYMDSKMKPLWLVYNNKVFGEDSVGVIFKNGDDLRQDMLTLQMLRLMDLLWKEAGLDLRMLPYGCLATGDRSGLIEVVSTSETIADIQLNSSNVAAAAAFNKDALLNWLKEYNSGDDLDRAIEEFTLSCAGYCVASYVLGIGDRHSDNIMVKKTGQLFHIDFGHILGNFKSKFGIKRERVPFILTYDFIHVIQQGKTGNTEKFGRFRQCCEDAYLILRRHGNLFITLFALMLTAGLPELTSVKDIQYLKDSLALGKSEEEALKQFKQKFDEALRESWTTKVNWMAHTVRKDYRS
T6 sequence (P27986 whole entry partner): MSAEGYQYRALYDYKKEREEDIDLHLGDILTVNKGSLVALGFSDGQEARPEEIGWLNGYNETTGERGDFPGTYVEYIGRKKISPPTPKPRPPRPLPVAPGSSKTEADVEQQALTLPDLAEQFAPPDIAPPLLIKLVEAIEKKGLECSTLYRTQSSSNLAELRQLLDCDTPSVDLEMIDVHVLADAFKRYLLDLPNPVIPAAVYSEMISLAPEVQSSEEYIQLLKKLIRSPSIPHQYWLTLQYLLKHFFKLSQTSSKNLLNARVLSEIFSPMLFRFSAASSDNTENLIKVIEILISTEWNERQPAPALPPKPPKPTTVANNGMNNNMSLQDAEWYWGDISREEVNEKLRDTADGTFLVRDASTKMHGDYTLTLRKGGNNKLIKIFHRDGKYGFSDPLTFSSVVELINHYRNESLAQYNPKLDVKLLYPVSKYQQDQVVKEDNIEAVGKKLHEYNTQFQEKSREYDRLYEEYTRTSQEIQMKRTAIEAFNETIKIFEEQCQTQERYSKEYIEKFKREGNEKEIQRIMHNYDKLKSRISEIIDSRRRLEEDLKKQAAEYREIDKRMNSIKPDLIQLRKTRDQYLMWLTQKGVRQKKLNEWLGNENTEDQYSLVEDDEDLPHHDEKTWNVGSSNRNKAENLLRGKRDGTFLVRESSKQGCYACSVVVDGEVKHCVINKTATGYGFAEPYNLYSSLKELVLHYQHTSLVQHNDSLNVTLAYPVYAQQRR
T2 sequence (O00329 whole entry): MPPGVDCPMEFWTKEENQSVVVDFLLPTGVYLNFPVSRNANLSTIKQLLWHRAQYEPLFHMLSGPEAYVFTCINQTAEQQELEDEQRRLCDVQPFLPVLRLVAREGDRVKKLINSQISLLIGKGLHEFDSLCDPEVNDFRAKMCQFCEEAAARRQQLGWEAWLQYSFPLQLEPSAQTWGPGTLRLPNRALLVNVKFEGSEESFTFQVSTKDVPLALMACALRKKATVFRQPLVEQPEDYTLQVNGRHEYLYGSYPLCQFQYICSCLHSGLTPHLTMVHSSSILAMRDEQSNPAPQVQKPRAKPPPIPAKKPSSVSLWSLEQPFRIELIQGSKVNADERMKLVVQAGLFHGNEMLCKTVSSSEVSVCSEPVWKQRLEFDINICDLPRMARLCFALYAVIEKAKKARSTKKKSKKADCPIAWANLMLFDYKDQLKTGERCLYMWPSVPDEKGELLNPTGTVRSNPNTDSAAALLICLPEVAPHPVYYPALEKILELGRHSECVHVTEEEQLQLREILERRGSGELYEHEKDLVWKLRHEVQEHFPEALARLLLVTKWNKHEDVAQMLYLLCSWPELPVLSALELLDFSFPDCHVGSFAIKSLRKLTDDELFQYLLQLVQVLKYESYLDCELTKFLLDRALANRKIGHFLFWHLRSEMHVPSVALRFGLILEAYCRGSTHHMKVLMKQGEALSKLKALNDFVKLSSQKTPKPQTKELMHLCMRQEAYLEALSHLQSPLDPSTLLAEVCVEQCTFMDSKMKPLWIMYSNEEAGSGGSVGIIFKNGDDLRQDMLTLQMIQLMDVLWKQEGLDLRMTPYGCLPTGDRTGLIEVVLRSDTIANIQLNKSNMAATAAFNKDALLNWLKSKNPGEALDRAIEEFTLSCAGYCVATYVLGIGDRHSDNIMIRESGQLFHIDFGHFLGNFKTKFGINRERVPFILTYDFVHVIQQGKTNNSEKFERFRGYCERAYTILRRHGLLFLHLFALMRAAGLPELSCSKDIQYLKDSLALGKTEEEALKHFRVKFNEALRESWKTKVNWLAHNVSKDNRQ
T2 sequence (P27986 whole entry partner): as the sequence (P27986 whole entry partner) above
Sequence of PI3K-α (P42336 whole entry): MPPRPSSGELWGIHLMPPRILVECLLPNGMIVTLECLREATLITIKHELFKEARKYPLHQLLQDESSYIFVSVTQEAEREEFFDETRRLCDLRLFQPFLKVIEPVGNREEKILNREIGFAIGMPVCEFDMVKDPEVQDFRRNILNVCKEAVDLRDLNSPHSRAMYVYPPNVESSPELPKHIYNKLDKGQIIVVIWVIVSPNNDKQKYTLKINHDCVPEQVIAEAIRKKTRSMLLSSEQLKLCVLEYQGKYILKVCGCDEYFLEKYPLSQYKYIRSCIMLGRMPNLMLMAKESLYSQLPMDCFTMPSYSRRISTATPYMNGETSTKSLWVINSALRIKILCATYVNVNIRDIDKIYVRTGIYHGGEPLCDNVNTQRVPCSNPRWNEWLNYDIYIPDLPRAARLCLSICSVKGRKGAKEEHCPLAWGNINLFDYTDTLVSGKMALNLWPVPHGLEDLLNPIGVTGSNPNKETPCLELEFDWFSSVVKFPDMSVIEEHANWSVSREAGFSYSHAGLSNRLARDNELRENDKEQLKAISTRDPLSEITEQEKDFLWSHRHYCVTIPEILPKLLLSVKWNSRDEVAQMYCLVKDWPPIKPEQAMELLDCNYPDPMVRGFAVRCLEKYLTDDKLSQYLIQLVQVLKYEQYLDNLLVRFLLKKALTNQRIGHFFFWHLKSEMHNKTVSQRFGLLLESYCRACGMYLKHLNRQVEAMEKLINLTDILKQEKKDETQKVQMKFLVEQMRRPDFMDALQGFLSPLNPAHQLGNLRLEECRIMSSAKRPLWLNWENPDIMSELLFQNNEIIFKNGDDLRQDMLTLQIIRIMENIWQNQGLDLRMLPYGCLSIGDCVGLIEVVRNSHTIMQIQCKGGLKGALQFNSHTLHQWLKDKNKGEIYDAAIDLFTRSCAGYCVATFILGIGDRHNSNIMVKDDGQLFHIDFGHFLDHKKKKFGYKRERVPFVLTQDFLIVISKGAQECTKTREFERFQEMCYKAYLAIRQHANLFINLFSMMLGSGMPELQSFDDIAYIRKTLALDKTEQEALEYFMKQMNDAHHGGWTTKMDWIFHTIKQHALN
Sequence of PI3K-α (P27986 whole entry partner): as the sequence (P27986 whole entry partner) above

**Q.** Which “inhibition of EGFR” value (EGFR) does the source give for Cc1ccc(NC(=O)c2[nH]c(C(F)(F)F)nc2-c2ccc(F)cc2)cc1Nc1ccc2ncn(C)c(=O)c2c1 [KIN-035] here?
**A.** X (X > 25% @ 1 μM)

**Q.** Which results are given for Cc1ccc(NC(=O)c2nc(S(C)(=O)=O)[nH]c2-c2ccc(F)cc2)cc1Nc1nccc(-c2cccnc2)n1 [Inhibitor I-14, 3-(4-(pyridin-3-yl)-pyrimidinyl-2-yl)amino-4-methyl-analine, 5-(4-Fluorophenyl)-2-(methylsulfonyl)-1H-imidazole-4-carboxamide]?
**A.** Time Dependence Observed? PI3K-δ (PI3K-δ; 15 vs 60 Min preincubation): Yes; IC50 (PI3K-δ; preincubation 15 Min): 3180 nM; IC50 (PI3K-δ; preincubation 60 Min): 1120 nM; Time Dependence Observed? P38b/MAPK11 (P38b/MAPK11; 15 vs 60 Min preincubation): No; IC50 (P38b/MAPK11; preincubation 15 Min): 1020 nM; IC50 (P38b/MAPK11; preincubation 60 Min): 1080 nM; Time Dependence Observed? ROS/ROS1 (ROS/ROS1; 15 vs 60 Min preincubation): No; IC50 (ROS/ROS1; preincubation 15 Min): 1250 nM; IC50 (ROS/ROS1; preincubation 60 Min): 1280 nM; Time Dependence Observed? Aurora A (Aurora A; 15 vs 60 Min preincubation): No; IC50 (Aurora A; preincubation 15 Min): 2740 nM; IC50 (Aurora A; preincubation 60 Min): 2630 nM; Time Dependence Observed? PI3K-β (PI3K-β; 15 vs 60 Min preincubation): Yes; IC50 (PI3K-β; preincubation 15 Min): 12600 nM; IC50 (PI3K-β; preincubation 60 Min): 2910 nM; Time Dependence Observed? FMS (FMS; 15 vs 60 Min preincubation): No; IC50 (FMS; preincubation 15 Min): 220 nM; IC50 (FMS; preincubation 60 Min): 240 nM; Time Dependence Observed? PI3K-α (PI3K-α; 15 vs 60 Min preincubation): Yes; IC50 (PI3K-α; preincubation 15 Min): 899 nM; IC50 (PI3K-α; preincubation 60 Min): 387 nM

**Q.** With Cc1ccc(-c2nc(C(F)(F)F)[nH]c2C(=O)Nc2ccc(C)c(Nc3ccc4ncn(C)c(=O)c4c3)c2)cc1F [KIN-038] as the compound, how does the “inhibition of BMPR2” value (BMPR2) read?
**A.** X (X > 25% @ 1 μM)
